A short description of data set [1]: Measurement of Log P values by HPLC on reversed phase columns (EEC directive 79/831 Annex V.A8). Particulars: reversed phase HPLC column, method [a]: LC-UV, acidic range, 0.1% formic acid in water and acetonitrile as eluent. It counts as physicochemical. Summed up: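 Reversed-phase HPLC with UV detection per EEC 79/831 Annex V.A8, linear 10–95% acetonitrile gradient. Aqueous eluent: 0.1% formic acid (acidic), 0.001 M ammonium acetate (neutral), or 0.1% phosphoric acid (acidic); multiple values in one method joined by "+".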

Another data set concerns Pyrenophora teres. As to the kind of experiment: In vivo preventive test on Pyrenophora teres (net blotch on barley). Particulars: 240 h, 500 ppm of active ingredient, preventive spray on barley, evaluated 10 days after inoculation, read-out: efficacy. Summed up: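 Young barley plants sprayed preventively with compound formulated in DMSO/acetone/Tween 80 and diluted in water; controls got solvent only. Inoculated 24 hours later with P. teres spore suspension, then held 48 hours at 20° C, 100% RH and 8 days at 20° C, 70-80% RH.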

The subject of a further data set is Alternaria alternata. Kind of data set: Alternaria alternata in vitro cell test. It counts as cell-based. Particulars: 120 h, 20 ppm of active ingredient, liquid culture, 5 days incubation, spectrometric measurement of mycelium growth, read-out: efficacy (inhibition of fungal growth). The essentials: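 Liquid culture assay in which A. alternata spores in medium received DMSO-solubilized compound (final DMSO ≤1%). After 5 days, mycelium growth was measured spectrometrically. Inhibition was calculated against fungicide-free control wells.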

From patent publication US20230192617A1, “AZABICYCLIC(THIO)AMIDES AS FUNGICIDAL COMPOUNDS” (Bayer CropScience Aktiengesellschaft, priority 2020, published 2023) come the findings set out here.

In general, chromatographic logP refers to lipophilicity estimated from chromatographic retention. One may read the inhibition as the change of the read-out against control, counted positive when it falls.

The compound `Cc1ccc(C(F)(F)CNC(=O)c2c(Oc3cccc(C4CC4)c3F)nnc3c2CCC3)c(Cl)c1` [I-144] returned a chromatographic logP in data set [1] of 4.05. Besides, the pest or weed control at 500 ppm in the data set on Pyrenophora teres is 80 to 89%. The inhibition at 20 ppm in the data set on Alternaria alternata lay in the range of 90 to 100%.

`Cc1ccc2c(C(=O)NCC(F)(F)c3ccc(C)c(C)c3)c(Oc3cccc(C(F)(F)F)c3)nnc2c1` [I-246] yielded a chromatographic logP in data set [1] of 4.66. In the data set with Pyrenophora teres, the pest or weed control at 500 ppm was in the range of 80 to 89%. Besides, in the data set on Alternaria alternata, the inhibition at 20 ppm fell in the range of 90 to 100%.

For the compound `Cc1ccc(C(F)(F)CNC(=O)c2c(Oc3cccc(C4CC4)c3F)nnc3c2CCC3)c(C)c1` [I-134], the chromatographic logP in data set [1] was found to be 4.17. Further, the pest or weed control at 500 ppm with Pyrenophora teres was 80 to 89%. Further, in the data set with Alternaria alternata, the inhibition at 20 ppm was 90 to 100%.

Compound `Cc1ccc(C(F)(F)CNC(=O)c2c(Oc3cccc(Cl)c3F)nnc3c2CCC3)c(Cl)c1` [I-143] showed a chromatographic logP in data set [1] of 3.84. Moreover, the pest or weed control at 500 ppm with Pyrenophora teres lay within 90 to 100%. For the same compound, in the data set on Alternaria alternata, the inhibition at 20 ppm lay in the range of 90 to 100%.

In turn, `Cc1ccc(C(F)(F)CNC(=O)c2c(Oc3cccc(C(F)(F)F)c3)nnc3c2CCC3)c(Cl)c1` [I-142] registered a chromatographic logP in data set [1] of 3.94. In addition, in the data set on Pyrenophora teres, the pest or weed control at 500 ppm fell in the range of 90 to 100%. Further, in the data set on Alternaria alternata, the inhibition at 20 ppm was 90 to 100%.

`Cc1ccc(C(F)CNC(=O)c2c(Oc3cccc(C(F)(F)F)c3)nnc3c2COCC3)c(C)c1` (stereo not drawn) [I-123] registered a chromatographic logP in data set [1] of 3.61. Also, the pest or weed control at 500 ppm with Pyrenophora teres fell in the range of 90 to 100%. In the data set with Alternaria alternata, the inhibition at 20 ppm fell in the range of 90 to 100%.

On to `Cc1cc(Cl)ccc1C(F)(F)CNC(=O)c1c(Oc2cccc(Cl)c2)nnc2c1CCCC2` [I-146], for which, in data set [1], the chromatographic logP is 4.11. In the data set on Pyrenophora teres, the pest or weed control at 500 ppm is 80 to 89%. In addition, the inhibition at 20 ppm with Alternaria alternata was in the range of 90 to 100%.

As for `Cc1ccc(C(F)(F)CNC(=O)c2c(Oc3cccc(Cl)c3F)nnc3c2CCC3)c(C)c1` [I-133], the chromatographic logP in data set [1] is 3.89. Moreover, the pest or weed control at 500 ppm in the data set on Pyrenophora teres fell in the range of 90 to 100%. In addition, the inhibition at 20 ppm in the data set on Alternaria alternata was in the range of 90 to 100%.

As to `Cc1cc(Br)ccc1C(F)(F)CNC(=O)c1c(Oc2cccc(Cl)c2)nnc2c1CCCC2` [I-151], the chromatographic logP in data set [1] was 4.17. Also, the pest or weed control at 500 ppm in the data set with Pyrenophora teres lay within 80 to 89%. The inhibition at 20 ppm in the data set with Alternaria alternata fell in the range of 90 to 100%.

On to `Cc1cccc(Oc2cnc3ccccc3c2C(=O)NCC(F)(F)c2ccc(C)cc2C)c1` [I-222], for which the chromatographic logP in data set [1] was determined as 4.3. In addition, the pest or weed control at 500 ppm in the data set on Pyrenophora teres was in the range of 80 to 89%. Further, the inhibition at 20 ppm in the data set on Alternaria alternata was in the range of 90 to 100%.

With `Cc1ccc(C(F)(F)CNC(=O)c2c(Oc3cccc(Br)c3F)nnc3c2CCCC3)c(C)c1` [I-128], in data set [1], the chromatographic logP was found to be 4.05. Besides, in the data set on Pyrenophora teres, the pest or weed control at 500 ppm was in the range of 90 to 100%. The inhibition at 20 ppm with Alternaria alternata was 90 to 100%.
